How the values were obtained:
healthy human volunteers = test: Clinical and laboratory follow-up, CD3+ counts and HAMA in healthy human volunteers; type: in vivo; details: oral
Description: * OKT3 (Orthoclone OKT-3) was purchased from Ortho Biotech Inc. (New Jersey, USA). Antibodies to OKT3 were evaluated on day 30 using the Human Anti-Mouse Antibodies (HAMA)-ELISA kit (MEDAC, Hamburg, Germany).
Healthy males (≥18 years) not on therapy for medical or other illnesses were enrolled in accordance with the guidelines of the Hebrew University-Hadassah Institutional Committee for Human Clinical Trials, and the approval of the Israel Ministry of Health Committee for Human Trials. Of 35 potential study subjects screened 18 met inclusion and exclusion criteria and were randomized to one of the treatment groups.
Nine subjects (3/group) were orally administered 0.2 mg, 1.0 mg or 5.0 mg of OKT3 daily for 5 days and immune parameters measured on days 5, 10 and 30 days (FIG. 12). Six subjects (3/group) received 7.5 mg of beta glucosylceramide in combination with 0.2 mg or 1.0 mg of OKT3 and 3 subjects received GC alone. All subjects were treated with 20 mg of Omeprazole (a proton pump inhibitor) during the 5 days of dosing. […]
All patients underwent a full medical history and physical examination, including review of adverse effects on days 1, 5, 10, and 30, along with complete blood counts, differential, electrolytes, liver and kidney function tests, and lipid profile. C-reactive protein and sedimentation rates were also evaluated. […]

dendritic cells = test: Expression of IL-23, IL-10 and TGF-β in dendritic cells by rtPCR; type: in vivo, human
Description: Nine subjects (3/group) were orally administered 0.2 mg, 1.0 mg or 5.0 mg of OKT3 daily for 5 days and immune parameters measured on days 5, 10 and 30 days (FIG. 12). Six subjects (3/group) received 7.5 mg of beta glucosylceramide in combination with 0.2 mg or 1.0 mg of OKT3 and 3 subjects received GC alone. All subjects were treated with 20 mg of Omeprazole (a proton pump inhibitor) during the 5 days of dosing. Dosing occurred in the morning before breakfast at the study site following a 8 hours fast.
Frozen PBMCs were used for sorting different cell populations, surface staining, and proliferation assays, and cytokine measurements. Cell sorting was performed by thawing […] PBMCs at room temperature (RT) and washing themed twice in medium at RT in 50-ml tubes in a 10-ml volume at 1,400 rpm. Cells were suspended to 20×10^6/ml and stained with seven colors staining of cells using Fc block, Lin-FITC, CD11c-APC, CD123-PE, CD3-Amcyan, CD4-Alexa700, CD25-PB, and 7-AAD was performed. Compensation controls, including an unstained control, were prepared. All samples were washed with medium and filtered into 15-ml tubes with 2 ml volume each to a total volume of 2 ml. CD4+ effector T cells, CD4+ regulatory T cells, myeloid DCs, and plasmacytoid DCs were sorted. Tubes were washed to get retrieve all sticky cells and spin them at 1,400 rpm. All cell populations were put in 350 μl of RLT 350 ul (lysis buffer), and transferred to eppendorff microtubes, and froze at −70° C. RNA was prepared using Qiagen micro kits (Valencia, Calif., USA) and cDNA was prepared using Applied Biosystems kits (Foster City, Calif., USA). We performed real-time PCR (RT-PCR) for different genes on in regulatory T cells, effector T cells, and DCs was performed.
RT RT-PCR was performed on DC from all patients in all groups. Sorting of DC was performed as described above. Total RNA was isolated from cell pellets using the RNA easy Mini Kit (QIAGENQiagen). RNA was stored at −80° C. First, strand cDNA synthesis was performed for each RNA sample from 0.5-1 μgm of total RNA using Taqman reverse transcription reagents (Applied Biosystems). cDNA was amplified using sequence-specific primers (for IL-23, IL-10, IL-1, IL-6, and TGF-β) and real-time PCR mix (Applied Biosystems) on an ABI7500 cycler. The GAPDH gene was used as an endogenous control to normalize for differences in the amount of total. RNA in each sample. All values were expressed as fold fold-increase or -decrease relative to the expression of GAPDH.
To further investigate the effect of oral OKT3 on the innate immune system, the expression of IL-23, IL-10 and TGF-β in dendritic cells was next measured by rtPCR.

Substance: OKT3: murine monoclonal anti-CD3 antibody (Orthoclone OKT-3, Ortho Biotech)
- CD3+ lymphocyte counts or modulation of CD3 from the T cell surface (healthy human volunteers): no decrease
- anti-OKT3 (HAMA) antibodies (healthy human volunteers; day 30): no subject developed
- subjects with similar findings (IL-10, TGF-β) in dendritic cells (dendritic cells; 0.2 mg oral, not shown): two out of three subjects
- subjects with decrease in IL-23 in dendritic cells (dendritic cells; 1.0 mg oral): all three subjects
- subjects with increase in IL-10 in dendritic cells (dendritic cells; 1.0 mg oral): two out of three subjects
- subjects with increase in TGF-β in dendritic cells (dendritic cells; 1.0 mg oral): one out of three subjects
- effect on dendritic cells (dendritic cells; 5.0 mg oral, not shown): no effect

From US9981037B2, “Combination therapy of beta-glycolipids and antibodies for the treatment of immune-related disorders” (HADASIT MEDICAL RESEARCH SERVICES AND DEVELOPMENT LTD., priority 2008, dated 2018)
